Data on 13 compounds can be found in patent publication US9073876B2, “Flap modulators” (JANSSEN PHARMACEUTICA NV, priority 2013, dated 2015).

Structures can show the parent of a compound that is named as a salt.

One assay concerns the target human FLAP (Homo sapiens (Human), UniProt P20292). As to the kind of experiment: FLAP binding assay (HTRF). Particulars: human FLAP-containing membranes, HTRF format; average of two assay plates, duplicates; read-out: FLAP Binding wild type HTRF Ki. In short, it runs like this: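 Read-out is the HTRF ratio. Each reported figure averages two assay plates on which samples were tested in duplicate.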

The subject of assay [1] is leukotriene pathway in human whole blood (LTB4 levels). As to the kind of experiment: Human whole blood assay (LTB4). Format: cell-based. Particulars: human whole blood diluted 1:1 in RPMI, stimulated with calcium ionophore A23187; single replicate. Summed up: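 Heparinised human whole blood, diluted 1:1 in RPMI, was pre-incubated with test compounds for 15 min at 37° Celsius, then stimulated with A23187 (7 μg/mL) for 30 min at 37° Celsius. Plasma LTB4 was measured by immunoassay kit; IC50 from 4-parameter fit; single replicate, at least one healthy donor.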

Chain of human FLAP (P20292 whole entry): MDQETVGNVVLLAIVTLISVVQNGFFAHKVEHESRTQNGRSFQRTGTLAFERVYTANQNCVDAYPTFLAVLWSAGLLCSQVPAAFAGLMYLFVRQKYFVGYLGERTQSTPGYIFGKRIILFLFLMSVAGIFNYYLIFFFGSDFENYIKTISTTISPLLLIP

Consider `COC(=O)c1ccc2oc(COc3c(C4CCC4)ccc(-c4cnc(N)cn4)c3F)nc2c1` [Example 262, Methyl 2-{[3-(5-aminopyrazin-2-yl)-6-cyclobutyl-2-fluorophenoxy]methyl}-1,3-benzoxazole-5-carboxylate], for which, on human FLAP, the inhibition constant Ki was 19.6 nM. Also, in assay [1], the IC50 worked out at 160 nM.

With `N#Cc1cccc(Oc2c(C3CCC3)ccc(-c3cnc(N)cn3)c2F)n1` [Example 111, 6-[3-(5-Aminopyrazin-2-yl)-6-cyclobutyl-2-fluorophenoxy]pyridine-2-carbonitrile], the Ki on human FLAP is 1.9 nM. For the same compound, the IC50 in assay [1] came out at 65.4 nM.

For the compound `CSc1ccnc(Oc2c(C3CCC3)ccc(-c3cnc(N)cn3)c2F)n1` [Example 88, 5-(4-Cyclobutyl-2-fluoro-3-{[4-(methylsulfanyl)pyrimidin-2-yl]oxy}phenyl)pyrazin-2-amine], the Ki at human FLAP came out at 4 nM. Further, the IC50 in assay [1] was found to be 36.1 nM.

As to `Nc1cnc(-c2ccc(C3CCC3)c(OCc3cccc(C(F)(F)F)c3)c2F)cn1` [Example 2, 5-(4-Cyclobutyl-2-fluoro-3-{[3-(trifluoromethyl)benzyl]oxy}phenyl)-pyrazin-2-amine], the Ki at human FLAP was found to be 158 nM. Moreover, the IC50 in assay [1] came to 526 nM.

On to `Nc1cnc(-c2ccc(C3CCC3)c(OCc3cccc(S(F)(F)(F)(F)F)c3)c2F)cn1` [Example 80, 5-(4-Cyclobutyl-2-fluoro-3-{[3-(pentafluoro-lambda~6~- sulfanyl)benzyl]oxy}phenyl)pyrazin-2-amine], for which the inhibition constant Ki on human FLAP came to 304 nM. Also, the half-maximal inhibitory concentration (IC50) in assay [1] came to 3290 nM.

`CS(=O)(=O)c1ccnc(Oc2c(C3CCC3)ccc(-c3cnc(N)cn3)c2F)n1` [Example 95, 5-(4-Cyclobutyl-2-fluoro-3-{[4-(methylsulfonyl)pyrimidin-2-yl]oxy}phenyl)pyrazin-2-amine]: the Ki at human FLAP stood at 5 nM. Also, in assay [1], the IC50 is above 1000 nM.

Take `N#Cc1cccc(COc2c(C3CCC3)ccc(-c3cnc4c(c3)OCCN4)c2F)c1` [Example 187, 3-{[6-Cyclobutyl-3-(3,4-dihydro-2H-pyrido[3,2-b][1,4]oxazin-7-yl)-2-fluorophenoxy]-methyl}-benzonitrile]: the inhibitory constant (Ki) at human FLAP was 12 nM. For the same compound, in assay [1], the IC50 was found to be 355 nM.

Consider `Nc1cnc(-c2ccc(C3CCC3)c(Oc3ccc(C(F)(F)F)nn3)c2F)cn1` [Example 106, 5-(4-Cyclobutyl-2-fluoro-3-{[6-(trifluoromethyl)pyridazin-3-yl]oxy}phenyl)pyrazin-2-amine], for which, at human FLAP, the inhibition constant (Ki) worked out at 84 nM. In addition, the IC50 in assay [1] amounted to 376 nM.

Regarding `Cc1nc(Oc2c(C3CCC3)ccc(-c3cnc(N)cn3)c2F)cc(N(C)C)n1` [Example 235, 6-(3-(5-Aminopyrazin-2-yl)-6-cyclobutyl-2-fluorophenoxy)-N,N,2-trimethylpyrimidin-4-amine], the inhibition constant (Ki) on human FLAP worked out at 3.3 nM. Moreover, in assay [1], the half-maximal inhibitory concentration (IC50) came out at 113 nM.

Turning to `Nc1ncc(-c2ccc(C3CCC3)c(Oc3ccnc(N)n3)c2F)cn1` [Example 166, 4-[3-(2-Aminopyrimidin-5-yl)-6-cyclobutyl-2-fluorophenoxy]pyrimidin-2-amine], the Ki on human FLAP was found to be 11.7 nM. Also, in assay [1], the IC50 is 129 nM.

With `Nc1cnc(-c2ccc(C3CCC3)c(OCc3ccccn3)c2F)cn1` [Example 24, 5-[4-Cyclobutyl-2-fluoro-3-(pyridin-2-ylmethoxy)phenyl]pyrazin-2-amine], the Ki at human FLAP turned out to be 100 nM. For the same compound, in assay [1], the 50% inhibitory concentration (IC50) was above 10000 nM.

With `Nc1cnc(-c2ccc(C3CCC3)c(OCCNc3cnccn3)c2F)cn1` [Example 295, 5-{4-Cyclobutyl-2-fluoro-3-[2-(pyrazin-2-ylamino)ethoxy]phenyl}pyrazin-2-amine trifluoroacetic acid salt], the Ki at human FLAP worked out at 4.2 nM. In assay [1], the half-maximal inhibitory concentration (IC50) was determined as 149 nM.

Take `Nc1cnc(-c2ccc(C3CC3)c(Oc3nccc(N)n3)c2F)cn1` [Example 279, 2-[3-(5-Aminopyrazin-2-yl)-6-cyclopropyl-2-fluorophenoxy]pyrimidin-4-amine]: the Ki at human FLAP was 67.5 nM. The half-inhibitory concentration (IC50) in assay [1] worked out at 147 nM.

As usually defined, the Ki is a measure of affinity in units of concentration, obtained from inhibition or displacement. As usually defined, the IC50 is the midpoint of a concentration-inhibition curve.
